Test system: Zymosan-induced paw inflammation
Experiment: Zymosan-induced paw inflammation in the mouse: spontaneous running performance in a running wheel
Type: in vivo, C57/B6 mice
Conditions: for Statistical difference as compared with the vehicle: running wheel AUC, seven days
Experimental: 4th Model: • Zymosan-induced paw inflammation in the mouse; • Parameter: spontaneous running performance in a running wheel. In the cage in which it is kept, the experimental animal has access to a running wheel, the revolutions of which are recorded electronically. During the night hours, the C57/B6 mice use the running wheel voluntarily and, after a one-week phase of acclimatization, cover on average 4 100 meters/night. After zymosan has been injected, the distance run each night is reduced. This reduction in running performance is a valid parameter for a restriction in function which is due to inflammation pain. Experimental implementation: After an acclimatization phase of one week, the distance run/24 hours was measured in order to determine the base line. 25 μl of a suspension containing 50 mg of zymosan/ml were then injected into the right hind paw of the experimental animal during short-term anesthesia using isoflurane. The distance run/24 hours was then determined during the following seven days. In the analysis, the area under the curve for the values for the distance run was determined (AUC, tab. 7): the lower the AUC, the lower was the running performance during the week following injection of the zymosan. […] The substance was administered for the first time on day 1 after injection of the zymosan.

**Q.** `CNc1nccc(-c2cc3cc(C(=O)N[C@@H](CN(c4ccccc4)c4ccccc4)c4n[nH]c(=O)o4)ccc3[nH]2)n1` [Compound 13, N—[(S)-2-diphenylamino-1-(5-oxo-4,5-dihydro[1,3,4]oxadiazol-2-yl)ethyl]-2-(2-methylaminopyrimidin-4-yl)-1H-indole-5-carboxamide] was tested. Which “distance run as compared with the vehicle group” value (mouse, 7 days, both the higher doses) did it give?
**A.** Its value is “dose-dependent increase”.

**Q.** What about the “Statistical difference as compared with the vehicle” value (from here on “Statistical difference”) (2.8 mg/kg twice daily) of the same molecule?
**A.** The value was “no”.

**Q.** What about the “Statistical difference” value (25 mg/kg twice daily) of the same molecule?
**A.** Its value is “yes”.

**Q.** What about the “Statistical difference” value (75 mg/kg twice daily) of the same molecule?
**A.** The value was “yes”.

— patent US8809358B2, “Use of IκB-kinase inhibitors in pain therapy” (Sanofi-Aventis Deutschland GmbH, priority 2002, dated 2014)
